#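 Briefly, cells in 96-well plates were exposed to five compound concentrations for 48 h, and endpoints were estimated by linear interpolation. TGI marks complete inhibition of growth.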
# Key:
# Experiment in all cases: NCI-60 cell line screen, 48 h
# [1] = system: CAKI-1 renal
# [2] = system: HCC-2998 colon
# [3] = system: COLO 205 colon
# [4] = system: HS 578T breast
# [5] = system: SF-539 CNS
# [6] = system: SK-MEL-28 melanoma
# [7] = system: MDA-N
# [8] = system: OVCAR-5 ovarian
# [9] = system: K-562 leukemia
# [10] = system: SNB-19 CNS
# [11] = system: A549 NSCLC
# [12] = system: NCI-H23 lung
# [13] = system: ACHN renal
# [14] = system: MDA-MB-435
# [15] = system: PC-3 prostate
# [16] = system: KM12 colon
# [17] = system: HCT-116 colon
# [18] = system: LOX IMVI melanoma
# [19] = system: UACC-257 melanoma
# [20] = system: RXF 393 renal
SMILES,TGI [1],TGI [2],TGI [3],TGI [4],TGI [5],TGI [6],TGI [7],TGI [8],TGI [9],TGI [10],TGI [11],TGI [12],TGI [13],TGI [14],TGI [15],TGI [16],TGI [17],TGI [18],TGI [19],TGI [20]
O=C(CN1CCCC1)Nc1ccc2sc3ccccc3c(=O)c2n1,47.1 µM,39.8 µM,44.8 µM,52.1 µM,35.3 µM,39.7 µM,77.6 µM,62.3 µM,46.7 µM,> 100 µM,38.8 µM,99.1 µM,31.7 µM,35.3 µM,57.4 µM,44.2 µM,68.3 µM,37.3 µM,,
CC(C)=CCC/C(C)=C/CC/C(C)=C/CC/C(C=O)=C/CC/C(C)=C\CC/C(C)=C/CC/C(C)=C/CC/C(C)=C/CC1=CC(=O)C=CC1=O,74.3 µM,> 100 µM,> 100 µM,> 100 µM,,> 100 µM,> 100 µM,> 100 µM,> 100 µM,> 100 µM,> 100 µM,> 100 µM,> 100 µM,> 100 µM,> 100 µM,> 100 µM,> 100 µM,> 100 µM,> 100 µM,
Cc1ccc(S(=O)(=O)N/N=C2/CC[C@H](C(C)(C)C)C[C@@H]2C)cc1,26.3 µM,33.5 µM,35.4 µM,45.1 µM,32.5 µM,32.8 µM,34.3 µM,32.5 µM,42.1 µM,32.6 µM,33.4 µM,36.8 µM,30.3 µM,32.7 µM,36.8 µM,49.7 µM,29.3 µM,27.9 µM,27 µM,
O=c1[nH][nH]c(=S)c(=O)[nH]1,> 100 µM,,> 100 µM,> 100 µM,> 100 µM,> 100 µM,> 100 µM,> 100 µM,> 100 µM,> 100 µM,> 100 µM,> 100 µM,> 100 µM,> 100 µM,> 100 µM,> 100 µM,> 100 µM,> 100 µM,> 100 µM,> 100 µM
CC(C)(C)OC(=O)N1C(=O)OC[C@@H]2C=C[C@@H]21,> 100 µM,,> 100 µM,> 100 µM,> 100 µM,> 100 µM,> 100 µM,> 100 µM,,> 100 µM,> 100 µM,> 100 µM,> 100 µM,> 100 µM,> 100 µM,> 100 µM,> 100 µM,> 100 µM,> 100 µM,> 100 µM
Clc1ccc(-c2cc(-c3nc4ccccc4[nH]3)no2)cc1,34.7 µM,33.5 µM,41.8 µM,79.7 µM,74.3 µM,40.5 µM,33.8 µM,40.8 µM,50.2 µM,36 µM,36 µM,42.3 µM,36.9 µM,31.6 µM,48.4 µM,40 µM,30.6 µM,35.5 µM,36.4 µM,
COc1ccc(C2Oc3c(cccc3OC)C=C2[N+](=O)[O-])cc1 (stereo not drawn),4.31 µM,,6.95 µM,8.82 µM,,4.37 µM,13.1 µM,6.48 µM,16.3 µM,16.6 µM,26.4 µM,12.4 µM,3.38 µM,10.9 µM,5.16 µM,4.52 µM,2.55 µM,2.81 µM,19 µM,2.7 µM
COc1cc(C2SC(N)=Nc3c2c(C)nn3C(=O)Cc2ccccc2)ccc1O (stereo not drawn),> 100 µM,> 100 µM,> 100 µM,> 100 µM,> 100 µM,> 100 µM,> 100 µM,,> 100 µM,> 100 µM,> 100 µM,> 100 µM,> 100 µM,> 100 µM,> 100 µM,> 100 µM,> 100 µM,> 100 µM,> 100 µM,
O=C(O)C1CCCN1Cc1ccc2c(c1)OCO2 (stereo not drawn),> 100 µM,,> 100 µM,> 100 µM,> 100 µM,> 100 µM,> 100 µM,> 100 µM,> 100 µM,> 100 µM,> 100 µM,> 100 µM,> 100 µM,> 100 µM,> 100 µM,> 100 µM,> 100 µM,> 100 µM,> 100 µM,> 100 µM
COC(=O)c1cc(/C=C2\Cc3cc4c(cc3C2=O)CCC4)cc2c1CCC2,> 100 µM,> 100 µM,> 100 µM,> 100 µM,> 100 µM,> 100 µM,> 100 µM,> 100 µM,> 100 µM,> 100 µM,> 100 µM,> 100 µM,> 100 µM,> 100 µM,> 100 µM,> 100 µM,> 100 µM,> 100 µM,> 100 µM,
CC(C)[C@H](NC(=O)[C@@H](O)[C@H](N)Cc1ccccc1)C(=O)N[C@@H](Cc1ccccc1)C(=O)O,> 100 µM,> 100 µM,> 100 µM,> 100 µM,,> 100 µM,> 100 µM,> 100 µM,> 100 µM,> 100 µM,> 100 µM,> 100 µM,> 100 µM,> 100 µM,> 100 µM,> 100 µM,> 100 µM,> 100 µM,> 100 µM,
COc1ccc2nc(-c3ccc(O)cc3)cn2c1,> 100 µM,,> 100 µM,> 100 µM,> 100 µM,> 100 µM,> 100 µM,> 100 µM,> 100 µM,> 100 µM,> 100 µM,> 100 µM,> 100 µM,> 100 µM,> 100 µM,> 100 µM,> 100 µM,> 100 µM,,> 100 µM
CC[C@@H]1C[C@@H](O)[C@@H]2[C@H](O)[C@H](O)CN2C1,> 100 µM,> 100 µM,> 100 µM,> 100 µM,> 100 µM,> 100 µM,> 100 µM,> 100 µM,> 100 µM,> 100 µM,> 100 µM,> 100 µM,> 100 µM,> 100 µM,> 100 µM,> 100 µM,> 100 µM,> 100 µM,> 100 µM,
CC[C@]12C=CCN3CCC4(c5cc(N=Nc6ccc([N+](=O)[O-])cc6)c(OC)cc5N(C)[C@H]4[C@@](O)(C(=O)OC)[C@@H]1OC(C)=O)[C@@H]32 (stereo partly drawn),50 µM,,42.5 µM,77.8 µM,45.8 µM,> 100 µM,38.6 µM,28.2 µM,34.6 µM,> 100 µM,> 100 µM,32.4 µM,67.8 µM,31.6 µM,46.1 µM,33.2 µM,24.6 µM,47.3 µM,56.5 µM,35.6 µM
Cc1cc(-c2ccc(Cl)cc2)c(C#N)c(=S)n1C1OC(CO)C(O)C(O)C1O (stereo not drawn),> 100 µM,> 100 µM,> 100 µM,> 100 µM,> 100 µM,> 100 µM,> 100 µM,> 100 µM,,> 100 µM,> 100 µM,> 100 µM,> 100 µM,> 100 µM,> 100 µM,> 100 µM,> 100 µM,> 100 µM,> 100 µM,> 100 µM
Cn1c(=O)c2c(nc3sc4ncccc4c(=O)n32)n(C)c1=O,> 100 µM,> 100 µM,> 100 µM,> 100 µM,> 100 µM,> 100 µM,> 100 µM,> 100 µM,,> 100 µM,,> 100 µM,> 100 µM,> 100 µM,> 100 µM,> 100 µM,> 100 µM,> 100 µM,> 100 µM,> 100 µM
CCOC(=O)c1cc(C2(OC)CCN(Cc3ccccc3)C2=O)c(-c2cc(C)no2)[nH]1 (stereo not drawn),> 100 µM,> 100 µM,> 100 µM,> 100 µM,,> 100 µM,> 100 µM,> 100 µM,> 100 µM,> 100 µM,> 100 µM,> 100 µM,> 100 µM,> 100 µM,> 100 µM,> 100 µM,> 100 µM,,> 100 µM,> 100 µM
Nc1nc(Cl)cc(NCC2(CO)CCC(OCc3ccccc3)C2)n1 (stereo not drawn),45.1 µM,,62.7 µM,43.9 µM,> 100 µM,> 100 µM,74.6 µM,> 100 µM,> 100 µM,> 100 µM,> 100 µM,43.8 µM,> 100 µM,39.9 µM,33 µM,94.6 µM,> 100 µM,46.4 µM,45.1 µM,> 100 µM
O=C1CCC2(c3ccc(F)cc3)Nc3ncncc3N12 (stereo not drawn),,> 10 µM,,> 10 µM,> 10 µM,,> 10 µM,> 10 µM,> 10 µM,> 10 µM,> 10 µM,> 10 µM,> 10 µM,> 10 µM,> 10 µM,> 10 µM,,> 10 µM,> 10 µM,

# Source: PubChem BioAssay (NCI)
